Results from patent publication US20130072506A1, “6,8-DISUBSTITUTED PURINE COMPOSITIONS” (priority 2011, published 2013).
Like-named read-outs stand apart in the source and are kept apart here.

Key:
[1] = system: T-lymphoblastic leukemia cell line CEM; test: In vitro cytotoxic activity (metabolisation of Calcein AM); format: cell-based, human; details: CEM cells, 72 hours incubation, called GI50, read-out: Cell line tested/IC50 (μmol/L) CEM
Excerpt: (§1) In vitro Cytotoxic Activity (Metabolisation of Calcein AM). Because toxic compounds negatively influence metabolic processes of cells, many standard cytotoxicity assays are based on measurement of metabolisation rate of various artificial substrates. Resulting product is then quantified, for example, by means of spectrometry. The assays can be easily modified for use in 96-well plates. For evaluation of cytotoxicity of the 6,8-disubstituted purines of this invention, a microtiter assay based on quantification of metabolisation of Calcein AM was used. The assay is widely used in drug screening programs and in chemosensitivity testing. In live cells, Calcein AM is enzymatically hydrolysed and accumulation of resulting calcein is manifested by green fluorescence.
(§2) The following human cell lines were used for routine screening of the compounds: normal diploid fibroblasts BJ, T-lymphoblastic leukemia cell line CEM, promyelocytic leukemia cell line HL-60, erytroid leukemia cell line K-562, breast carcinoma cell line MCF-7, osteosarcoma cell line HOS and melanoma cell line G-361. The cells were maintained in Nunc/Corning 80 cm^2 plastic tissue culture flasks and cultured in cell culture medium (DMEM with 5 g/l glucose, 2 mM glutamine, […] penicillin, 100 mmg/ml streptomycin, 10% fetal calf serum and sodium bicarbonate).
(§3) The cell suspensions were prepared and diluted according to the particular cell type and the expected target cell density (2.500-30.000 cells per well based on cell growth characteristics) and pipetted (80 μl) into 96-well plates. Inoculates were allowed a pre-incubation period of 24 hours at 37° C. and 5% CO2 for stabilization. Tested compound was added in total volume of […] of water at time zero. Usually, test compound was evaluated at six 3-fold dilutions. In routine testing, the highest concentration tested was 100 μM, but it could have been adjusted because of limited solubility of a compound. All drug concentrations were tested in triplicates.
(§4) Incubations of cells with the test compounds lasted for 72 hours at 37° C., in 5% CO2 atmosphere and 100% humidity. At the end of incubation period Calcein AM in PBS was added into final concentration of 1 μg/ml. After another 1 hour of incubation fluorescence (FD) was measured with the Labsystem FIA Reader Fluoroscan Ascent (UK). Growth inhibition (GI) was estimated using the following equitation: GI=(mean FDdrug exposed wells−mean FDblank)/(mean FDcontrol wells−mean FDblank)×100%. The GI50 value, the drug concentration causing 50% reduction of Calcein AM conversion, was calculated from the obtained dose response curves.

[2] = system: breast carcinoma cell line MCF-7; test: as above; format: cell-based, human; details: MCF7 cells, 72 hours incubation, called GI50, read-out: Cell line tested/IC50 (μmol/L) MCF7
Excerpt: as §1, §2, §3, §4

[3] = system: erytroid leukemia cell line K-562; test: as above; format: cell-based, human; details: 72 hours incubation, called GI50, read-out: Cell line tested/IC50 (μmol/L) K-562
Excerpt: as §1, §2, §3, §4

[4] = system: normal diploid fibroblasts BJ; test: as above; format: cell-based, human; details: BJ cells, 72 hours incubation, called GI50, read-out: Cell line tested/IC50 (μmol/L) BJ
Excerpt: as §1, §2, §3, §4

[5] = system: osteosarcoma cell line HOS; test: as above; format: cell-based, human; details: HOS cells, 72 hours incubation, called GI50, read-out: Cell line tested/IC50 (μmol/L) HOS
Excerpt: as §1, §2, §3, §4

melanoma cell line G-361 = test: as above; format: cell-based, human; details: G-361 cells, 72 hours incubation, called GI50, read-out: Cell line tested/IC50 (μmol/L) G-361
Excerpt: as §1, §2, §3, §4

[6] = system: Human diploid fibroblast BJ; test: In vitro cytotoxic activity (metabolisation of MTT); format: cell-based; details: 72 hours, BJ passage 18-22
Description: In vitro Cytotoxic Activity (metabolisation of Mtt). MTT ([…]) assay is a standard colorimetric assay for evaluation of cytotoxicity. Mitochondrial dehydrogenase activity converts yellow MTT into violet formazan which is measured by means of spectrometry.
Human diploid fibroblast BJ (passage 18-22) were seeded into 96-well plate (5.000 cells per well). After 6 hours cultivation medium (DMEM with 5 g/l glucose, 2 mM glutamine, 100 U/ml penicillin, 100 mmg/ml streptomycin, 10% fetal calf serum and sodium bicarbonate) was replaced with the cultivation medium containing test compounds in concentration range of 0-200 μM. Highest concentration was adjusted if the solubility of the compound was limiting. Every concentration was tested in pentaplicate. MTT was added to the cells after 72 hours incubation (final concentration 0.5 mg/ml) and incubation continued for another 3 hours. MTT was solubilised by DMSO and absorbance at 570 nm was measured. Growth inhibition (GI) was estimated using the following equitation: GI=(mean A drug exposed wells−mean Ablank/mean Acontrol wells−mean Ablank)×100%. The GI20 value, the drug concentration causing 20% decrease in mitochondrial dehydrogenase activity, was calculated from the obtained dose response curves.

[7] = Homo sapiens, K562, K-562 cells

| SMILES | IC50 [1] [µmol/L] | IC50 [2] [µmol/L] | IC50 ([3]; K-562 cells) [µmol/L] | IC50 [4] [µmol/L] | IC50 [5] [µmol/L] | IC50 (melanoma cell line G-361) [µmol/L] | GI20 [6] [µM] | IC50 ([1]; Homo sapiens, CCRF-CEM) [µmol/L] | IC50 ([2]; Homo sapiens) [µmol/L] | IC50 [3, 7] [µmol/L] | IC50 ([4]; Homo sapiens) [µmol/L] | IC50 ([5]; Homo sapiens) [µmol/L] | IC50 (melanoma cell line G-361; Homo sapiens) [µmol/L] |
| --- | --- | --- | --- | --- | --- | --- | --- | --- | --- | --- | --- | --- | --- |
| NCc1nc2ncnc(Nc3ccccc3)c2[nH]1 [Compound 184] | > 50 | > 50 | > 50 | > 50 | > 50 | > 50 | – | – | – | – | – | – | – |
| COc1cccc(CNc2ncnc3nc(N)[nH]c23)c1 [Compound 98] | > 50 | > 50 | > 50 | > 50 | > 50 | > 50 | >100 | – | – | – | – | – | – |
| COc1nc2ncnc(NCC=C(C)CO)c2[nH]1 [Compound 122] | > 50 | > 50 | > 50 | > 50 | > 50 | > 50 | – | – | – | – | – | – | – |
| Nc1nc2ncnc(NCc3ccccc3Br)c2[nH]1 [Compound 93] | > 50 | > 50 | > 50 | > 50 | > 50 | > 50 | – | – | – | – | – | – | – |
| CC(=CCNc1ncnc2nc(NCCCN)[nH]c12)CO [Compound 210] | > 50 | > 50 | > 50 | > 50 | > 50 | > 50 | >100 | – | – | – | – | – | – |
| Nc1nc2ncnc(NCc3cccc([N+](=O)[O-])c3)c2[nH]1 [Compound 100] | > 50 | > 50 | > 50 | > 50 | > 50 | > 50 | >100 | – | – | – | – | – | – |
| COC(=O)c1nc2ncnc(NCc3ccco3)c2[nH]1 [Compound 187, 6-furfurylamino-8-(methoxycarbonyl)purine] | – | – | – | – | – | – | – | > 50 | > 50 | > 50 | > 50 | > 50 | > 50 |
| NCc1nc2ncnc(NCc3ccco3)c2[nH]1 [Compound 180] | > 50 | > 50 | > 50 | > 50 | > 50 | > 50 | – | – | – | – | – | – | – |
| Nc1nc2ncnc(Nc3ccccc3O)c2[nH]1 [Compound 114] | > 50 | > 50 | > 50 | > 50 | > 50 | > 50 | >100 | – | – | – | – | – | – |
| CCOC(=O)c1nc2ncnc(NCc3ccco3)c2[nH]1 [Compound 194, 6-furfurylamino-8-(ethoxycarbonyl)purine] | – | – | – | – | – | – | – | > 50 | > 50 | > 50 | > 50 | > 50 | > 50 |
| Oc1nc2ncnc(Nc3ccccc3)c2[nH]1 [Compound 171] | > 50 | > 50 | > 50 | > 50 | > 50 | > 50 | – | – | – | – | – | – | – |
| CSc1nc2ncnc(NCc3ccco3)c2[nH]1 [Compound 147, 6-furfurylamino-8-methylthiopurine] | – | – | – | – | – | – | – | > 50 | > 50 | > 50 | > 50 | > 50 | > 50 |
| Sc1nc2ncnc(NCc3ccco3)c2[nH]1 [Compound 137, 6-furfurylamino-8-mercaptopurine] | – | – | – | – | – | – | – | > 50 | > 50 | > 50 | > 50 | > 50 | > 50 |
| COc1ccccc1Nc1ncnc2nc(CN)[nH]c12 [Compound 185] | > 50 | > 50 | > 50 | > 50 | > 50 | > 50 | – | – | – | – | – | – | – |
| COc1cccc(Nc2ncnc3nc(CN)[nH]c23)c1 [Compound 186] | > 50 | > 50 | > 50 | > 50 | > 50 | > 50 | – | – | – | – | – | – | – |
| N#Cc1nc2ncnc(NCc3ccco3)c2[nH]1 [Compound 173] | > 50 | > 50 | > 50 | > 50 | > 50 | > 50 | – | – | – | – | – | – | – |
| NCCCNc1nc2ncnc(NCc3ccco3)c2[nH]1 [Compound 208, 6-furfurylamino-8-(aminopropylamino)purine] | – | – | – | – | – | – | – | > 50 | > 50 | > 50 | > 50 | > 50 | > 50 |
| O=C(O)c1nc2ncnc(NCc3ccco3)c2[nH]1 [Compound 201] | > 50 | > 50 | > 50 | > 50 | > 50 | > 50 | – | – | – | – | – | – | – |
| COc1cccc(Nc2ncnc3nc(O)[nH]c23)c1 [Compound 172] | > 50 | > 50 | > 50 | > 50 | > 50 | > 50 | – | – | – | – | – | – | – |
| CC(=CCNc1ncnc2nc(O)[nH]c12)CO [Compound 168] | > 50 | > 50 | > 50 | > 50 | > 50 | > 50 | – | – | – | – | – | – | – |
| NCc1nc2ncnc(NCc3cccc(F)c3)c2[nH]1 [Compound 182] | > 50 | > 50 | > 50 | > 50 | > 50 | > 50 | – | – | – | – | – | – | – |
| COc1cccc(CNc2ncnc3nc(O)[nH]c23)c1 [Compound 170] | > 50 | > 50 | > 50 | > 50 | > 50 | > 50 | – | – | – | – | – | – | – |
| Oc1cccc(CNc2ncnc3nc(O)[nH]c23)c1 [Compound 169] | > 50 | > 50 | > 50 | > 50 | > 50 | > 50 | – | – | – | – | – | – | – |
| COc1nc2ncnc(NCc3cccc(OC)c3O)c2[nH]1 [Compound 130] | > 50 | > 50 | > 50 | > 50 | > 50 | > 50 | – | – | – | – | – | – | – |
| COc1cccc(CNc2ncnc3nc(CN)[nH]c23)c1 [Compound 183] | > 50 | > 50 | > 50 | > 50 | > 50 | > 50 | – | – | – | – | – | – | – |
| CC(=CCNc1ncnc2nc(Br)[nH]c12)CO [Compound 3] | > 50 | > 50 | > 50 | > 50 | > 50 | > 50 | – | – | – | – | – | – | – |
| Oc1nc2ncnc(NCc3ccco3)c2[nH]1 [Compound 166] | > 50 | > 50 | > 50 | > 50 | > 50 | > 50 | – | – | – | – | – | – | – |
